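Assay format: 96-well plates, 48-hour exposure. GI50 marks 50% less growth. TGI marks complete inhibition of growth.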
What was measured:
Experiment in all cases: NCI tumour cell line growth inhibition, 48 h
HL-60(TB) leukemia = test system: HL-60(TB) leukemia
HCT-15 colon = test system: HCT-15 colon
A498 renal = test system: A498 renal
UO-31 renal = test system: UO-31 renal
SNB-19 CNS = test system: SNB-19 CNS
CCRF-CEM leukemia = test system: CCRF-CEM leukemia
SF-539 CNS = test system: SF-539 CNS
NCI-H460 lung = test system: NCI-H460 lung
A549 NSCLC = test system: A549 NSCLC
SK-MEL-5 melanoma = test system: SK-MEL-5 melanoma

Cc1ccc(Cl)c(NS(=O)(=O)c2ccc(-c3cnc(C4CC4)o3)cc2)c1 showed a GI50 (HL-60(TB) leukemia) of 0.0451 µM, a GI50 (HCT-15 colon) of 0.055 µM and a TGI (HCT-15 colon) of 18.2 µM. The GI50 (A498 renal) was 0.0286 µM, the TGI (A498 renal) was 0.303 µM and the GI50 (UO-31 renal) was 0.275 µM. It also gave a TGI (UO-31 renal) greater than 100 µM, a GI50 (SNB-19 CNS) of 0.129 µM and a TGI (SNB-19 CNS) greater than 100 µM. It also gave a GI50 (CCRF-CEM leukemia) of 0.0777 µM, a TGI (CCRF-CEM leukemia) greater than 100 µM and a GI50 (SF-539 CNS) of 0.0803 µM. It also gave a TGI (SF-539 CNS) of 1.54 µM, a GI50 (NCI-H460 lung) of 0.102 µM and a TGI (NCI-H460 lung) of 20.4 µM. It also gave a GI50 (A549 NSCLC) of 0.146 µM, a TGI (A549 NSCLC) greater than 100 µM and a GI50 (SK-MEL-5 melanoma) of 0.399 µM. The TGI (SK-MEL-5 melanoma) was 3.72 µM.

COc1ccc2c(c1)CCc1cc(OC)ccc1/[N+]([O-])=[N+]\2[O-] gave a TGI (HL-60(TB) leukemia) of 27.6 µM, a TGI (HCT-15 colon) of 42.9 µM and a TGI (A498 renal) of 34.2 µM. For the same molecule, the TGI (UO-31 renal) was 25.9 µM, the TGI (SNB-19 CNS) was 39 µM and the TGI (CCRF-CEM leukemia) was 5.74 µM. It also gave a TGI (SF-539 CNS) of 44 µM, a TGI (NCI-H460 lung) of 39.9 µM and a TGI (A549 NSCLC) greater than 67.6 µM. The TGI (SK-MEL-5 melanoma) was 31.6 µM.

For CCOC(=O)c1[nH]c2cc(OC)c(OC)cc2c1CN(C)C, the TGI (HL-60(TB) leukemia) was greater than 100 µM, the TGI (HCT-15 colon) was greater than 100 µM and the TGI (A498 renal) was greater than 100 µM. The TGI (UO-31 renal) was greater than 100 µM, the TGI (SNB-19 CNS) was greater than 100 µM and the TGI (CCRF-CEM leukemia) was greater than 100 µM. For the same molecule, the TGI (SF-539 CNS) was greater than 100 µM, the TGI (NCI-H460 lung) was greater than 100 µM and the TGI (A549 NSCLC) was greater than 100 µM. The TGI (SK-MEL-5 melanoma) was greater than 100 µM.

COC1C=COC2(C)Oc3c(C)c(O)c4c(O)c(c(C5SCCS5)c(O)c4c3C2=O)NC(=O)/C(C)=C\C=CC(C)C(O)C(C)C(O)C(C)C(OC(C)=O)C1C (centres undefined) showed a TGI (HL-60(TB) leukemia) of 12.5 µM, a TGI (HCT-15 colon) of 21.8 µM and a TGI (A498 renal) of 26.5 µM. The TGI (UO-31 renal) was 26.7 µM, the TGI (SNB-19 CNS) was 17.7 µM and the TGI (CCRF-CEM leukemia) was 5.33 µM. The TGI (SF-539 CNS) was 20.9 µM, the TGI (NCI-H460 lung) was 18 µM and the TGI (A549 NSCLC) was 22.4 µM. The TGI (SK-MEL-5 melanoma) was 20.8 µM.

In the case of O=C(Nc1ccc(Cl)cc1C(=O)O)c1ccc([N+](=O)[O-])cc1, the TGI (HL-60(TB) leukemia) is reported as 50.8 µM, the TGI (HCT-15 colon) is reported as 46.3 µM and the TGI (A498 renal) is reported as 27.2 µM. The TGI (UO-31 renal) was 44.1 µM, the TGI (SNB-19 CNS) was greater than 100 µM and the TGI (CCRF-CEM leukemia) was 67.4 µM. For the same molecule, the TGI (SF-539 CNS) was 37.5 µM, the TGI (NCI-H460 lung) was 45.7 µM and the TGI (A549 NSCLC) was greater than 100 µM. It also gave a TGI (SK-MEL-5 melanoma) of 48.7 µM.

O=C(c1ccc([N+](=O)[O-])cc1)C(Br)C(Br)c1ccnc2ccccc12 (centres undefined) gave a TGI (HL-60(TB) leukemia) of 9.99 µM, a TGI (HCT-15 colon) of 27.3 µM and a TGI (A498 renal) of 25.7 µM. It also gave a TGI (UO-31 renal) of 3.58 µM, a TGI (SNB-19 CNS) of 30.8 µM and a TGI (CCRF-CEM leukemia) of 2.11 µM. The TGI (SF-539 CNS) was 15.3 µM, the TGI (NCI-H460 lung) was 13.8 µM and the TGI (A549 NSCLC) was 30.5 µM. The TGI (SK-MEL-5 melanoma) was 20 µM.

Molecule C#C[C@@]1(O)[C@@H](CO)O[C@@H](n2cc(C(F)(F)F)c3c(N)ncnc32)[C@@H]1O has a GI50 (HL-60(TB) leukemia) of 0.278 µM, a TGI (HL-60(TB) leukemia) of 0.984 µM and a GI50 (HCT-15 colon) of 0.679 µM. It also gave a TGI (HCT-15 colon) greater than 25.5 µM, a GI50 (A498 renal) of 0.168 µM and a TGI (A498 renal) of 0.533 µM. The GI50 (UO-31 renal) was 0.311 µM, the TGI (UO-31 renal) was 3.16 µM and the GI50 (SNB-19 CNS) was 1.53 µM. The TGI (SNB-19 CNS) was greater than 100 µM, the GI50 (CCRF-CEM leukemia) was 0.487 µM and the TGI (CCRF-CEM leukemia) was greater than 37.2 µM. The GI50 (SF-539 CNS) was 0.86 µM, the TGI (SF-539 CNS) was 2.71 µM and the GI50 (NCI-H460 lung) was 0.536 µM. It also gave a TGI (NCI-H460 lung) of 10.6 µM, a GI50 (A549 NSCLC) of 0.871 µM and a TGI (A549 NSCLC) greater than 19.7 µM. It also gave a GI50 (SK-MEL-5 melanoma) of 0.688 µM and a TGI (SK-MEL-5 melanoma) of 4.38 µM.

Molecule CCCCOc1ccc(/C=N/Nc2cc(C)nc3ccc(Br)cc23)cc1 has a GI50 (HL-60(TB) leukemia) of 2.02 µM, a TGI (HL-60(TB) leukemia) of 4.07 µM and a GI50 (HCT-15 colon) of 1.61 µM. For the same molecule, the TGI (HCT-15 colon) was 3.05 µM, the GI50 (A498 renal) was 1.48 µM and the TGI (A498 renal) was 2.85 µM. The GI50 (UO-31 renal) was 1.48 µM, the TGI (UO-31 renal) was 2.82 µM and the GI50 (SNB-19 CNS) was 1.86 µM. It also gave a TGI (SNB-19 CNS) of 3.41 µM, a GI50 (CCRF-CEM leukemia) of 1.88 µM and a TGI (CCRF-CEM leukemia) of 4.46 µM. For the same molecule, the GI50 (SF-539 CNS) was 1.84 µM, the TGI (SF-539 CNS) was 3.29 µM and the GI50 (NCI-H460 lung) was 2.08 µM. It also gave a TGI (NCI-H460 lung) of 4.06 µM, a GI50 (A549 NSCLC) of 1.88 µM and a TGI (A549 NSCLC) of 3.52 µM. For the same molecule, the GI50 (SK-MEL-5 melanoma) was 1.68 µM and the TGI (SK-MEL-5 melanoma) was 3.05 µM.

In the case of O=C(CCC(=O)Nc1cccc(C(F)(F)F)c1)CC(=O)c1ccc2ccccc2c1, the TGI (HL-60(TB) leukemia) is reported as greater than 100 µM, the TGI (HCT-15 colon) is reported as greater than 100 µM and the TGI (A498 renal) is reported as greater than 100 µM. It also gave a TGI (UO-31 renal) greater than 100 µM, a TGI (SNB-19 CNS) greater than 100 µM and a TGI (CCRF-CEM leukemia) greater than 100 µM. It also gave a TGI (SF-539 CNS) greater than 100 µM, a TGI (NCI-H460 lung) greater than 100 µM and a TGI (A549 NSCLC) greater than 100 µM. For the same molecule, the TGI (SK-MEL-5 melanoma) was greater than 100 µM.

Source: PubChem BioAssay (NCI)
